Laboratory results: patent US20100184186A1, “NOVEL RIGIDOPORUS MICROPORUS LACCASE” (Academia Sinica, priority 2009, published 2010)

How the values were obtained:
[1] = system: Lcc35; assay: Inhibitor effects on Lcc35 laccase activity; format: biochemical, R. microporus BCRC 35318; settings: ABTS substrate; for Relative activity (%) of Lcc35: pre-incubation pH 5.0, 30° C., 10 min
Procedure: The inhibitory effects of NaN3, ethylenediaminetetraacetic acid (EDTA), dithiothreitol (DTT), and L-Cysteine on Lcc35 were examined as follows. Lcc35 was pre-incubated in a solution (pH 5.0) containing one of the test compounds at 30° C. for 10 min. The laccase activity was then examined using ABTS as the substrate.

[2] = system: R. microporus BCRC 35318; assay: Effects of inducers on laccase production in R. microporus; format: cell-based; settings: for Yield of laccase production: inducer 1 mM in basal medium
Procedure: (§1) To isolate the laccase from R. microporus BCRC 35318, eight-day-old mycelial disks (8 mm in diameter) collected from the PDA plate mentioned above were inoculated into a basal medium containing (per liter) 10 g glucose, 0.22 g ammonium tartrate, 0.9 g K2HPO4, 0.1 g KH2PO4, 0.05 g MgSO4.7H2O, 0.5 g CaCl2, 0.01 g Thiamine HCl, and 10 ml solution (0.08 g CuSO4.5H2O, 0.07 g MnSO4.4H2O, 4.3 g ZnSO4.7H2O and 0.05 g FeSO4.7H2O per liter). The pH of the medium was adjusted to 5.5. After being cultured for 10 days at 30° C. in a rotary shaker with a speed setting of 125 rpm, the supernatant of the fungal culture thus obtained was collected and passed through a […] filter (Nalgene) to remove fungal cells. The filtrate was mixed with 100% ammonium sulfate for protein precipitation. The precipitated proteins were dissolved in 40 ml of a 10 mM sodium acetate buffer (pH 6.0) and the resultant solution was dialyzed against the same acetate buffer overnight to remove co-precipitated ammonium sulfate and then concentrated to 4 ml by ultracentrifugal filteration with a molecular cutoff of 10 kDa (Amicon).
R. microporus BCRC 35318 cells were cultured in the basal medium described in Example 1 above, which was supplemented with veratryl alcohol, 4-hydroxybenxoic acid, ferulic acid, or rice straw powder. Lcc35 were isolated from the culture supernatants following the method also described above and its activity was determined.

[3] = system: Rigidoporus microporus BCRC 35318 laccase Lcc35, native (wild type), mature form SEQ ID NO:1; assay: Kinetic constants of Lcc35 for digesting ABTS and SGZ (initial reaction rates at various substrate concentrations); format: biochemical, R. microporus BCRC 35318
Procedure: The pH of the medium was adjusted to 5.5. After being cultured for 10 days at 30° C. in a rotary shaker with a speed setting of 125 rpm, the supernatant of the fungal culture thus obtained was collected and passed through a […] filter (Nalgene) to remove fungal cells. […] The precipitated proteins were dissolved in 40 ml of a 10 mM sodium acetate buffer (pH 6.0) and the resultant solution was dialyzed against the same acetate buffer overnight to remove co-precipitated ammonium sulfate and then concentrated to 4 ml by ultracentrifugal filteration with a molecular cutoff of 10 kDa (Amicon). Next, the laccase activities of Lcc35 under various pH conditions were determined, following the method described in Lu et al., Appl. Microbiol. […] After being incubated at 30° C. for 1 min (when ABST or SGZ was the substrate) or for 4 hours (when RBBR was the substrate), each of the reaction mixtures was examined with a spectrophotometer to determine its optical density at 420 nm (when ABST was the substrate), at 530 nm (when SGZ was the substrate), or at 585 nm (when RBBR was the substrate). […] Kinetic constants of Lcc35 for digesting ABTS and SGZ were determined based on the initial reaction rates of Lcc35 at various substrate concentrations. The enzymatic reactions were taken place at pH 5 (for ABST) or pH 6 (for SGH) and 70° C.

[4] = system: Rigidoporus microporus BCRC 35318 laccase Lcc35, native (wild type), mature form SEQ ID NO:1; assay: Inhibitor effects on Lcc35 laccase activity (ABTS as the substrate); format: biochemical, R. microporus BCRC 35318; settings: 10 min; for Relative activity (residual laccase activity with inhibitor; None = 100.0): pre-incubated pH 5.0, 30° C.
Procedure: as §1
Next, the laccase activities of Lcc35 under various pH conditions were determined, following the method described in Lu et al., Appl. Microbiol. Biotechnol., 2007, 74, (6), 1232-1239. 0.01 ml of the Lcc35-containing solution was mixed with (i) 0.49 ml of a 50 mM reaction buffer of glycine-HCl (pH 2.0 to 3.0), sodium acetate (pH 4.0 to 6.0), or sodium phosphate (pH 7.0 to 8.0) and (ii) 0.5 ml of a substrate solution containing 2 mM ABTS, 1 mM [N,N′-bis(3,5-dimethoxy-4-hydroxybenzylidene)hydrazine] (SGZ), or 0.04% RBBR. After being incubated at 30° C. for 1 min (when ABST or SGZ was the substrate) or for 4 hours (when RBBR was the substrate), each of the reaction mixtures was examined with a spectrophotometer to determine its optical density at 420 nm (when ABST was the substrate), at 530 nm (when SGZ was the substrate), or at 585 nm (when RBBR was the substrate). One unit of laccase activity was defined as the amount of Lcc35 that oxidized 1 μmol substrate per min. […]

[5] = Activity comparison with T. versicolor laccase, SGZ assay; format: biochemical; settings: SGZ substrate; laccase amount by SDS-PAGE and ImageQuant TL 7.0
Procedure: (§2) Next, the laccase activities of Lcc35 under various pH conditions were determined, following the method described in Lu et al., Appl. Microbiol. Biotechnol., 2007, 74, (6), 1232-1239. 0.01 ml of the Lcc35-containing solution was mixed with (i) 0.49 ml of a 50 mM reaction buffer of glycine-HCl (pH 2.0 to 3.0), sodium acetate (pH 4.0 to 6.0), or sodium phosphate (pH 7.0 to 8.0) and (ii) 0.5 ml of a substrate solution containing 2 mM ABTS, 1 mM [N,N′-bis(3,5-dimethoxy-4-hydroxybenzylidene)hydrazine] (SGZ), or 0.04% RBBR. After being incubated at 30° C. for 1 min (when ABST or SGZ was the substrate) or for 4 hours (when RBBR was the substrate), each of the reaction mixtures was examined with a spectrophotometer to determine its optical density at 420 nm (when ABST was the substrate), at 530 nm (when SGZ was the substrate), or at 585 nm (when RBBR was the substrate). One unit of laccase activity was defined as the amount of Lcc35 that oxidized 1 μmol substrate per min.
(§3) The laccase activity of Lcc35 was compared with Trametes versicolor laccase (provided by Fluka Co.), using either ABST or SGZ as the substrate according to the methods described above.

[6] = pH stability of Lcc35; format: physicochemical; settings: incubated at 30° C. for 20 hours, ABTS substrate
Procedure: The Lcc35 solution was incubated under various pH conditions at 30° C. 20 hours later, the laccase activity in the solution was determined, using ABST as the substrate.

[7] = Laccase activity under various pH conditions, RBBR de-colorization; format: biochemical; settings: RBBR substrate, 30° C., 4 hours
Procedure: as §2

[8] = ABTS overlay activity assay on basic-native PAGE gel; format: biochemical; settings: ABTS reaction buffer 1 mM, pH 3, room temperature
Procedure: The laccase activity of this 55kDa protein was determined by an [2,2-azinobis(3-ethylbenzathiazoline-6-sulfonic acid)] (ABTS) overlay activity assay. See Lebendiker M BASIC-NATIVE GEL Protocol, wolfson.huji.ac.il/purification/Protocols/PAGE_Basic.html. A basic-native PAGE gel containing the 55 kDa protein was incubated in an ABTS reaction buffer (1 mM, pH 3) at room temperature.

[9] = Thermal stability of Lcc35; format: physicochemical; settings: pH 6.0, 30-70° C. for 10, 30 or 60 minutes
Procedure: To determine thermal stability of Lcc35, the enzyme solution was incubated under pH 6.0 at various temperatures (i.e., 30° C., 40° C., 50° C., 60° C., and 70° C.) for 10, 30, or 60 minutes.

[10] = Isoelectric focusing with PhastGel IEF 3-9; format: physicochemical
Procedure: First, the isoelectric focusing point of Lcc35 was determined with PhastGel IEF 3-9 (GE Healthcare), following the method described in Hackler et al., Anal. Biochem. 1995, 230, (2), 281-289. Briefly, the Lcc35-containing solution mentioned above was loaded on a PhastGel IEF 3-9 gel.

[11] = Laccase activity under various pH conditions, SGZ substrate; format: biochemical; settings: 30° C., 1 min
Procedure: as §2

[12] = Laccase activity at various temperatures; format: biochemical; settings: ABTS substrate, sodium acetate buffer pH 5.0, 1 minute, 25-90° C.
Procedure: The laccase activity of Lcc35 was determined at various temperatures (i.e., ranging from 25-90° C.), using ABST as the substrate. The Lcc35-containing solution was incubated with ABST and a sodium acetate buffer (pH 5.0) for 1 minute and the enzymatic activity was examined afterwards.

[13] = Laccase activity under various pH conditions, ABTS substrate; format: biochemical; settings: 30° C., 1 min
Procedure: as §2

[14] = Optimal pH with artificial lignin on agar micro-titer plate; format: biochemical; settings: 0.1% lignin substrate, 30° C., 4 hr
Procedure: The optimal pH of Lcc35 was also examined using an artificial lignin as a substrate, as follows. Each of the reaction buffers listed above was mixed with 0.1% lignin (Sigma #471003) and the mixture was placed in wells of an agar micro-titter plate. 10 μl of the Lcc35-containing suspension was placed at the center of each well. The agar plate was incubated at 30° C. for 4 hr to allow degradation of the artificial lignin by Lcc35.

[15] = Activity comparison with T. versicolor laccase, ABTS assay; format: biochemical
Procedure: as §2, §3

[16] = Enzymatic activity of purified Lcc35; format: biochemical; settings: isolated as in Example 1; culture with 1 mM 4-hydroxybenzoic acid
Procedure: as §1
See Cambria et al., Protein Expr. Purif. 2000, 18, (2), 141-147; and Liu et al., Appl. Microbiol. Biotechnol. 2003, 63, (2), 174-181. Following the isolation process described in Example 1 above, purified Lcc35 was obtained with a recovery rate of about 55% and an enzymatic activity of 289.8 U/ml.

[17] = substrate ABTS, pH 5, 70° C., 420 nm
[18] = substrate SGZ, pH 6, 70° C., 530 nm

## O[C@H](CS)[C@H](O)CS (racemic) [DTT, dithiothreitol]
[1]; compound 0.1 mM
  Relative activity (%) of Lcc35: 92.3%
[1]; compound 1.0 mM
  Relative activity (%) of Lcc35: 91.8%

## O=C(O)c1ccc(O)cc1 [4-Hydroxybenzoic acid, 4-hydroxybenzoic acid]
[2]
  Yield of laccase production: 10.5 Unit ml^−1
[2]; versus no inducer
  increase of Lcc35 production: 10.5 fold

## CCn1c(=NN=c2sc3cc(S(=O)(=O)O)ccc3n2CC)sc2cc(S(=O)(=O)O)ccc21 [ABTS, 2,2-azinobis(3-ethylbenzathiazoline-6-sulfonic acid)]
[3]; [17]
  Kcat: 730 s⁻¹
  Km: 53 µM

## O=C(O)CN(CCN(CC(=O)O)CC(=O)O)CC(=O)O [EDTA, ethylenediaminetetraacetic acid]
[1]; compound 10.0 mM
  Relative activity (%) of Lcc35: 100.0%
[1]; compound 25.0 mM
  Relative activity (%) of Lcc35: 100.0%

## COc1cc(/C=C/C(=O)O)ccc1O [Ferulic acid, ferulic acid]
[2]
  Yield of laccase production: 2.4 Unit ml^−1

## N[C@@H](CS)C(=O)O [L-Cysteine]
[1]; compound 0.1 mM
  Relative activity (%) of Lcc35: 97.2%
[1]; compound 1.0 mM
  Relative activity (%) of Lcc35: 92.7%

## [N-]=[N+]=[N-].[Na+] [NaN3]
[4]; 0.1 mM compound
  Relative activity (residual laccase activity with inhibitor; None = 100.0): 50.0%
[4]; 1.0 mM compound
  Relative activity (residual laccase activity with inhibitor; None = 100.0): 17.0%
[4]; concentrations of Table 2, pH 5.0, 30° C.
  inhibitory effect on Lcc35 (in words): substantially inhibited
[1]
  inhibitory effect on Lcc35 activity (in words): substantially inhibited
[1]; compound 0.1 mM
  Relative activity (%) of Lcc35: 50.0%
[1]; compound 1.0 mM
  Relative activity (%) of Lcc35: 17.0%

## COc1cc(/C=N/N=C/c2cc(OC)c(O)c(OC)c2)cc(OC)c1O [SGZ, N,N′-bis(3,5-dimethoxy-4-hydroxybenzylidene)hydrazine]
[3]; [18]
  Kcat: 750 s⁻¹
  Km: 7 µM

## COc1ccc(CO)cc1OC [Veratryl alcohol, veratryl alcohol]
[2]
  Yield of laccase production: 3.4 Unit ml^−1

B1: Lcc35: novel laccase isolated from R. microporus BCRC 35318; mature form SEQ ID NO:1, precursor SEQ ID NO:2 (protein)
chain: SVGPVADIPIVNANLSPDGFTRTTVLAGGTFPGPLIVGNKGDNFKLNVVDQLTDANQLKTTTIHWHGFFQHGTNWADGPAFVNQCPIASGNSFLYDFSAADQAGTFWYHSHLSTQYCDGLRGAFVVYDPSDPNASLYDVDNESTVITLADWYHTLARLGARFPTPDSTLINGLGRFAGGPASDLSVITVESGKRYRFRLVSISCDPNYTFSIDGHDMTIIEVNGINHDALSVDSIQIFAGQRYSFVLNANQAVGNYWIRANPNIGTRGFSGGINSAILRYVGADAVEPTTSQGTSTKPLVETNLHPSQNPGAVGSPTPGGVDLALNLALGFAGGSFTINGATFTSPTVPVLLQILSGAQSATDLLPSGSVFTLPGDSTIEISMPAGVAGGPHPFHLHGHAFDVVRASGSSTYNYANPVRRDVVSLGAAGDNVTIRFKTDNPGPWFLHCHIDWHLEAGLAIVFAEDTPNTAAINPVPQAWSDLCPIYNALAESDH
modifications: RIGIDOPORUS MICROPORUS
[5]
  SGZ assay, laccase-specific activity: 1700 U mg^−1
[6]
  pH at which Lcc35 was more stable: 6
[7]
  pH of highest laccase activity: 5-6
[8]
  laccase activity (color change around the 55 kDa band): high laccase activity
[9]
  temperature below which Lcc35 was stable: below 50 °C
[10]
  pI value: 3.98
[11]
  pH of highest laccase activity: 5-6
[12]
  temperature of highest laccase activity: 70 °C
[13]
  pH of highest laccase activity: 3-5
[14]
  pH of highest laccase activity: 5-6
[15]; ABTS or SGZ as the substrate
  laccase-specific activity relative to T. versicolor laccase: 2-3 fold
[15]; ABTS substrate, laccase amount by SDS-PAGE and ImageQuant TL 7.0
  ABTS assay, laccase-specific activity: 3800 U mg^−1
[16]
  enzymatic activity of purified Lcc35: 289.8 U/ml
